The source of these data is patent US9278954B2, “Pyrrolidine derivatives, pharmaceutical compositions and uses thereof” (Boehringer Ingelheim International GmbH, priority 2013, dated 2016).

The structures appear in SMILES notation.

Chain of human ACC2 (O00763 129-2458): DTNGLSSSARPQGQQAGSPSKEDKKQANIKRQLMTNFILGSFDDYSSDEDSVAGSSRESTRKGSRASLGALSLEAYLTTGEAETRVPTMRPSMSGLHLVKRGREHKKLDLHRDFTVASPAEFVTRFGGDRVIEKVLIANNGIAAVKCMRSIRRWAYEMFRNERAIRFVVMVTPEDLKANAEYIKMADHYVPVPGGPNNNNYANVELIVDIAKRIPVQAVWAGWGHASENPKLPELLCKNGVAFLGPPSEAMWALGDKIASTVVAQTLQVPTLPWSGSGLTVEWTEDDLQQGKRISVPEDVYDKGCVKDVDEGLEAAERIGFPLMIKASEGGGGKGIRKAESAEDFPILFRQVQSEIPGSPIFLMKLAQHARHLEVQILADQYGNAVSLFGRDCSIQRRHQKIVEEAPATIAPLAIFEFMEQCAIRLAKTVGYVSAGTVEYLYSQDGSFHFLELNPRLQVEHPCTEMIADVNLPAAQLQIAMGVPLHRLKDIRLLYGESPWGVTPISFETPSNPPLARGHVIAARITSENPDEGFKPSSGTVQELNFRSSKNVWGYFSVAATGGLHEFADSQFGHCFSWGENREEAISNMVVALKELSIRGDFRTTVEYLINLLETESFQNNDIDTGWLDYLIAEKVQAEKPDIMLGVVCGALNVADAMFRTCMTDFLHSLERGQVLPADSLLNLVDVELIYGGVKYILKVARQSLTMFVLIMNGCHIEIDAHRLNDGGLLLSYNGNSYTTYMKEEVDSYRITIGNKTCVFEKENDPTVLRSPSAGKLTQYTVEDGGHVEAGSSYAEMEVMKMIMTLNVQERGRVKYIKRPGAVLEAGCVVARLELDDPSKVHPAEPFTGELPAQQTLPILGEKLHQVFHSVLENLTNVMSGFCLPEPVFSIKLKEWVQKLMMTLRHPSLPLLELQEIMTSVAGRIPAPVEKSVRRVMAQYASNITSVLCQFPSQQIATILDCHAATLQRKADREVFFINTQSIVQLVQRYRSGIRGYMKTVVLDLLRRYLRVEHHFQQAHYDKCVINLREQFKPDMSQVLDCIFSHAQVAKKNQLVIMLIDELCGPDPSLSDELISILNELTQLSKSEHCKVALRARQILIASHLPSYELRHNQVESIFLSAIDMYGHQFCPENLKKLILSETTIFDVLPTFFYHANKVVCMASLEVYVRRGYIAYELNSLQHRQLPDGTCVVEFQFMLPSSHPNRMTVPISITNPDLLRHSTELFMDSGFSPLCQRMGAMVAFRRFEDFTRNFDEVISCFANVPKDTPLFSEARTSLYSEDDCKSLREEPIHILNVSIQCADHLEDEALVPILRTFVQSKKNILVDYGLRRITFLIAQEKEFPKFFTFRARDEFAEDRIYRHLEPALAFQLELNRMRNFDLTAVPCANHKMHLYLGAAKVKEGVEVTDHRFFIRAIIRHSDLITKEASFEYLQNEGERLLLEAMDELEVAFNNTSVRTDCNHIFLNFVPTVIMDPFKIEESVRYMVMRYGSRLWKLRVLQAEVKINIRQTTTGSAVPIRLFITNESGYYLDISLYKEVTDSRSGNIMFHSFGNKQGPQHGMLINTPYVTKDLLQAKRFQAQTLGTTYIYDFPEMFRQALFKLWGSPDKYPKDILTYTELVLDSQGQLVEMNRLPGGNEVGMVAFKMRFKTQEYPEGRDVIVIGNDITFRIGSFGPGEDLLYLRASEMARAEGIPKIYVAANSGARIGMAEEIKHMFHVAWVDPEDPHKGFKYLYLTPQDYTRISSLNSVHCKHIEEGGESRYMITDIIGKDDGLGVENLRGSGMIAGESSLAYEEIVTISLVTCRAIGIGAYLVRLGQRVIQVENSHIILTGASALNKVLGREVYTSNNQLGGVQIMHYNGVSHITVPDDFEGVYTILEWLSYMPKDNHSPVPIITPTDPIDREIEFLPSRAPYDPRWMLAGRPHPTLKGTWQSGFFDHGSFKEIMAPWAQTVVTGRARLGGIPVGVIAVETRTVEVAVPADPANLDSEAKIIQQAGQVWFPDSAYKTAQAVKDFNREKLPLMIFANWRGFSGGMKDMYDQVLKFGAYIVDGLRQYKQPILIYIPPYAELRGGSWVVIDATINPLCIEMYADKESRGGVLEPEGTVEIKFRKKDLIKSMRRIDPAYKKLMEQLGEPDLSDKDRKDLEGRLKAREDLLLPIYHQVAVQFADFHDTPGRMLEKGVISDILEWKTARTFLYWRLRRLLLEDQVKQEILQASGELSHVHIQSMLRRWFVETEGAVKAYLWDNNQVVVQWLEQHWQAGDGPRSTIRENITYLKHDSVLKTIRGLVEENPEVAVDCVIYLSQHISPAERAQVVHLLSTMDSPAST

The assay concerns the target human ACC2 (Homo sapiens (Human), UniProt O00763). Kind of assay: ACC2 assay (spectrophotometric 384 well assay, NADH-linked kinetic method). It counts as biochemical. Particulars: hACC2 construct lacking the 128 N-terminal amino acids; 25° C., 340 nm over 15 minutes. On the procedure:
Spectrophotometric 384 Well Assay
Malonyl CoA formation by acetyl CoA carboxylases is stoichometrically linked to the consumption of ATP. ACC2 activity is measured in a NADH-linked kinetic method measuring ADP generated during the ACC reaction using a coupled lactate dehydrogenase/pyruvate kinase reaction.
The protein is then expressed in insect cells using a baculoviral expression system. Protein purification is performed by anion exchange.
All compounds are dissolved in dimethyl sulfoxide (DMSO) to a concentration of 10 mM.
The enzymatic reaction is then started by addition of a mixture of NADH, acetyl
Coenzyme A (both […].) and ATP (500 uM f.c.). The decrease of the optical density (slope S) is then determined at 25° C. at a wavelength of 340 nm over 15 minutes in a spectrophotometric reader.
Each assay microtiter plate contains wells with vehicle instead of compound as controls for the non-inhibited enzyme (100% CTL; ‘HIGH’) and wells without acetyl-CoA as controls for non-specific NADH degradation (0% CTL; ‘LOW’).
Regarding `CCNC(=O)C(C)c1ccc(O[C@@H]2CCN(c3ccnc(N4CCC(F)(F)C4)n3)C2)cc1` (stereo partly shown) [Example 2.4], the IC50 (in general, the concentration at which inhibition is half-maximal) is 399 nM.
Under `CCCNC(=O)C(C)c1ccc(O[C@@H]2CCN(c3ccc(OCC4CC4(F)F)cn3)C2)cc1` (stereo partly shown) [Example 1.52] stands 533 nM; under `CC(C)NC(=O)C(C)c1ccc(O[C@@H]2CCN(c3ncnc(OCC(C)(F)F)c3F)C2)cc1` (stereo partly shown) [Example 1.80], 907 nM; under `CCNC(=O)C(C)c1ccc(O[C@@H]2CCN(c3ncnc(OCC(C)(C)O)c3Cl)C2)cc1` (single isomer, unassigned) [6.3 isomer 2], 1100 nM.
Under `C=C(C)CNC(=O)C(C)c1ccc(O[C@@H]2CCN(c3ccc(OCC4CC4(F)F)cn3)C2)cc1` (stereo partly shown) [Example 1.37] stands 418 nM; under `CC(C(=O)NC1CC1C)c1ccc(O[C@@H]2CCN(c3ncnc(OCC(C)(C)O)c3Cl)C2)cc1` (stereo partly shown) [Example 1.26], 325 nM.
The figure for `CCNC(=O)C(C)c1ccc(O[C@@H]2CCN(c3nc(C)ccc3F)C2)cc1` (stereo partly shown) [Example 7.25] is 500 nM; for `CC(C(=O)NCC(F)F)c1ccc(O[C@@H]2CCN(c3ncnc(OCC(C)(C)O)c3Cl)C2)cc1` (stereo partly shown) [Example 1.36] it is 413 nM; for `CC(C(=O)NC1CC1)c1ccc(O[C@@H]2CCN(c3nc(N(C)C)ncc3F)C2)cc1` (stereo partly shown) [Example 1.7] it is 170 nM.
The compound `C=C(C)CNC(=O)C(C)c1ccc(O[C@@H]2CCN(c3ncnc(OCC(C)(F)F)c3F)C2)cc1` (stereo partly shown) [Example 1.53] came in with an IC50 of 538 nM.
As for `CC(C(=O)NC1CC1C)c1ccc(O[C@@H]2CCN(c3ncnc(OCC(C)(F)F)c3F)C2)cc1` (stereo partly shown) [Example 1.22], half-maximal inhibition (IC50) was put at 311 nM.
Under `CCNC(=O)C(C)c1ccc(O[C@@H]2CCN(c3nc(N(C)C)ncc3F)C2)cc1` (single isomer, unassigned) [6.6 isomer 1] stands 126 nM; under `CCNC(=O)C(C)c1ccc(O[C@@H]2CCN(c3cccc(C(F)(F)F)n3)C2)cc1` (stereo partly shown) [Example 7.9], 315 nM.
Under `CC(C(=O)NCC(F)F)c1ccc(O[C@@H]2CCN(c3ncnc(OCC(C)(C)O)c3F)C2)cc1` (stereo partly shown) [Example 3.7] stands 613 nM; under `CCNC(=O)C(C)c1ccc(O[C@@H]2CCN(c3cccc(Cl)c3)C2)cc1` (stereo partly shown) [Example 7.19], 435 nM; under `CCCNc1nccc(N2CC[C@@H](Oc3ccc(C(C)C(=O)N[C@H](C)CC)cc3)C2)c1F` (stereo partly shown) [Example 1.29], 367 nM.
Under `CC(C(=O)NC1CCC1)c1ccc(O[C@@H]2CCN(c3ncnc(OCC(C)(F)F)c3F)C2)cc1` (stereo partly shown) [Example 1.66] stands 687 nM; under `CCNC(=O)C(C)c1ccc(O[C@@H]2CCN(c3ccc(OCC)cc3F)C2)cc1` (stereo partly shown) [Example 4.2], 575 nM.
In the case of `CC[C@@H](C)NC(=O)C(C)c1ccc(O[C@@H]2CCN(c3ccc(OCC4CC4(F)F)cn3)C2)cc1` (stereo partly shown) [Example 1.58], the midpoint of inhibition, the IC50, lay at 598 nM.
Under `CCNC(=O)C(C)c1ccc(O[C@@H]2CCN(c3ncc(OCC4CC4(F)F)cn3)C2)cc1` (stereo partly drawn) [Example 9.1, 2-(4-(1-[5-(2,2-Difluoro-cyclopropylmethoxy)-pyrimidin-2-yl]-(R)-pyrrolidin-3-yloxy)-phenyl)-N-ethyl-propionamide] stands 444 nM.
In turn, `CCCOc1ccc(N2CC[C@@H](Oc3ccc(C(C)C(=O)NCC)cc3)C2)c(Cl)c1` (stereo partly shown) [Example 7.5] gave an IC50 of 225 nM.
The figure for `CC(C(=O)NC1CCOCC1)c1ccc(O[C@@H]2CCN(c3ncnc(OCC(C)(C)O)c3Cl)C2)cc1` (stereo partly shown) [Example 1.91] is 2920 nM.
`CCNC(=O)C(C)c1ccc(O[C@@H]2CCN(c3ccc4c(c3)OCCCO4)C2)cc1` (stereo partly shown) [Example 7.10] displayed an IC50 of 329 nM.
The figure for `CC[C@@H](C)NC(=O)C(C)c1ccc(O[C@@H]2CCN(c3ncnc(OCC(C)(F)F)c3F)C2)cc1` (stereo partly shown) [Example 1.59] is 603 nM.
Under `CC(C(=O)N[C@H](C)CO)c1ccc(O[C@@H]2CCN(c3ccc(OCC4CC4(F)F)cn3)C2)cc1` (stereo partly shown) [Example 1.57] stands 591 nM; under `CC(C(=O)NCC(F)F)c1ccc(O[C@@H]2CCN(c3ncnc(OCC(C)(C)O)c3Cl)C2)cc1` (single isomer, unassigned) [6.5 isomer 2], 872 nM.
In turn, `CCCNc1nccc(N2CC[C@@H](Oc3ccc(C(C)C(=O)NCC4CC(F)(F)C4)cc3)C2)c1F` (stereo partly shown) [Example 1.92] returned an IC50 of 3700 nM.
The figure for `CC(C)NC(=O)C(C)c1ccc(O[C@@H]2CCN(c3ncnc(OCC(C)(C)O)c3Cl)C2)cc1` (stereo partly shown) [Example 1.49] is 492 nM.
Under `CCNC(=O)C(C)c1ccc(O[C@@H]2CCN(c3nc(N(C)C)ncc3F)C2)cc1` (stereo partly shown) [Example 1.27] stands 345 nM; under `CCNC(=O)C(C)c1ccc(O[C@@H]2CCN(c3ccnc(N(CC)CC)n3)C2)cc1` (stereo partly drawn) [Example 2.1, (R)-2-(4-[1-(2-Diethylamino-pyrimidin-4-yl)-pyrrolidin-3-lyoxy]-phenyl)-N-ethyl-propionamide], 95 nM; under `CC(CO)NC(=O)C(C)c1ccc(O[C@@H]2CCN(c3ncnc(OCC(C)(F)F)c3F)C2)cc1` (stereo partly shown) [Example 1.76], 838 nM.
